A word on the EC50: it is the concentration at which the effect is half-maximal. For orientation: melting point means the temperature of the solid-liquid transition.

Results on seven compounds are retold here after US6444685B1, “N-(4-sulfonylaryl)Cyclylamine 2-hydroxyethylamines as beta-3 adrenergic receptor agonists” (Wyeth, priority 2000, dated 2002).

For data set [1], the target named is T1, human β2-adrenergic receptor (Homo sapiens, UniProt P07550).
T1 construct: expressed in transfected cells; host or cells: CHO cells
Kind of data set: cAMP accumulation (SPA) in CHO cells transfected with human β2 adrenergic receptor. Type of data set: cell-based. Conditions: for EC50: CHO cells transfected with human β2-AR, cAMP, 15 min incubation, 10^−8 to 10^−4 M, read-out: beta-2 EC50; for beta-2 (IA) maximal response relative to isoproterenol: IA = % activity compound / % activity isoproterenol at 10^−5 M, CHO human β2 cells. The procedure, abridged: (§1)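 CHO cell clones expressing 70–110 fmol/mg protein of receptor were pre-incubated 30 min at 37 °C, then treated 15 min at 37 °C with compound (10^−8 to 10^−4 M) in DMEM with 250 μM IBMX and 1 mM ascorbic acid. cAMP was read by SPA after acid stop. EC50 and IA were expressed relative to maximal 10^−5 M isoproterenol response.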
(cAMP levels reflect the balance of adenylyl cyclase and phosphodiesterase activity.)

In data set [2] the target is T2, human β3 adrenergic receptor (Homo sapiens, UniProt P13945).
T2 construct: Full length β3 AR clones (402 amino acids) containing the last 6 amino acids of hβ3— AR are prepared; expressed in transfected cells; host or cells: CHO cells
As to the kind of experiment: cAMP accumulation (SPA) in CHO cells transfected with human β3 adrenergic receptor. Type of data set: cell-based. Conditions: for EC50: CHO cells expressing human β3-AR, cAMP, 30 min incubation, 10^−9 M to 10^−5 M, read-out: beta-3 EC50; for beta-3 (IA) maximal response relative to isoproterenol: IA = % activity compound / % activity isoproterenol at 10^−5 M, CHO human β3 cells. The procedure, abridged:
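CHO cells expressing human β3-AR (70–110 fmol/mg protein) treated with compound at 10^−9 to 10^−5 M in DMEM with 250 μM IBMX and 1 mM ascorbic acid, 30 min, 37 °C. cAMP measured by SPA; EC50 derived, and intrinsic activity expressed relative to the maximal response of 10^−5 M isoproterenol.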

Data set [3] deals with T3, human β1-adrenergic receptor (Homo sapiens, UniProt P08588).
T3 construct: expressed in transfected cells; host or cells: CHO cells
Kind of data set: cAMP accumulation (SPA) in CHO cells transfected with human β1 adrenergic receptor. The data set is classed as cell-based. To be noted: for EC50: CHO cells transfected with human β1-AR, cAMP, 15 min incubation, 10^−8 to 10^−4 M, read-out: beta-1 EC50; for beta-1 (IA) maximal response relative to isoproterenol: IA = % activity compound / % activity isoproterenol at 10^−5 M, CHO human β1 cells. The procedure, abridged:
as §1

T2 sequence (P13945 whole entry): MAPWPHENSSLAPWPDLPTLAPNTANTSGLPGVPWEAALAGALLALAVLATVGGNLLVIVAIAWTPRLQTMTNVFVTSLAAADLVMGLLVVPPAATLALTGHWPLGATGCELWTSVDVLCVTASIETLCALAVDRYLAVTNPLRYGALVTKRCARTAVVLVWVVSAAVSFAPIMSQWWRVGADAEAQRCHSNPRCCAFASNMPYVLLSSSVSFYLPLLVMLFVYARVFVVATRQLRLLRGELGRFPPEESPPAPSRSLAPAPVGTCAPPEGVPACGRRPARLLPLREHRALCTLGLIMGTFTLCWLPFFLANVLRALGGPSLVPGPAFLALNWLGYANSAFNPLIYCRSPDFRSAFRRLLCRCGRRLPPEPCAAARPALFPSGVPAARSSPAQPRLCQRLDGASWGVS
T1 sequence (P07550 whole entry): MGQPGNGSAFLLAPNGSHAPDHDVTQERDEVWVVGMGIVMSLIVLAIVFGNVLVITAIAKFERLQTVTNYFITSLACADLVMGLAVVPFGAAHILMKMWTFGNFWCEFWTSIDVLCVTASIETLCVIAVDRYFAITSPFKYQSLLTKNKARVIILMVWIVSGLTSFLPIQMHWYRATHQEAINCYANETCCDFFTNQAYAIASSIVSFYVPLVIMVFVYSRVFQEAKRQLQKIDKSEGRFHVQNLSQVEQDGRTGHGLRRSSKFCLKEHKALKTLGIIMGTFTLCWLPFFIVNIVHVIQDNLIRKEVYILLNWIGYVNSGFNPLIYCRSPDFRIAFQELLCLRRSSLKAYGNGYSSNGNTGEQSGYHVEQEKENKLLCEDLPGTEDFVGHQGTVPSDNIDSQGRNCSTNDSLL
T3 sequence (P08588 whole entry): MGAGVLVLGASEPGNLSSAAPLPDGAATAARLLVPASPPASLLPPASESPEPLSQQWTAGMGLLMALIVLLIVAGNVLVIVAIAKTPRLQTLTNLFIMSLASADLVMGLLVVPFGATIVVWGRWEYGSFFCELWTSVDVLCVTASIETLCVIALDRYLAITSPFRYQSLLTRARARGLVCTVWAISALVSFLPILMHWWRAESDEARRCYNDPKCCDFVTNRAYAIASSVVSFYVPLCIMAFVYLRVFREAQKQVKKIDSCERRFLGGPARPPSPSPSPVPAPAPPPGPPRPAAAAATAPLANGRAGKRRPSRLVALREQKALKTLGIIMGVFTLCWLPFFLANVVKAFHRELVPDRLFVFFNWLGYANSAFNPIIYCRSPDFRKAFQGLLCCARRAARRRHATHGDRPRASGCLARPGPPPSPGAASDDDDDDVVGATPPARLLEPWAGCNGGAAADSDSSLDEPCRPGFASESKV

With `CCOC(=O)CNS(=O)(=O)c1ccc(N2CCC(NC[C@H](O)c3ccc(O)c(NS(C)(=O)=O)c3)CC2)cc1` [Example 56, Ethyl 2-{[(4-{4-[((2R)-2-Hydroxy-2-{4-hydroxy-3-[(methylsulfonyl)amino]-phenyl}ethyl)amino]-1-piperidinyl}phenyl)sulfonyl]amino}acetate], the melting point is 105 to 107 °C. In addition, in data set [1], the 50% effective concentration (EC50) was 1.6 µM and the “beta-2 (IA) maximal response relative to isoproterenol” value is listed as “(0.27)”. Besides, in data set [2], the EC50 came out at 0.014 µM and the “beta-3 (IA) maximal response relative to isoproterenol” value is “(1)”. In addition, in data set [3], the EC50 was found to be 9.5 µM and the “beta-1 (IA) maximal response relative to isoproterenol” value is listed as “(0.31)”.

On to `CCOC(=O)NC(=O)CNS(=O)(=O)c1ccc(N2CCC(NC[C@H](O)c3ccc(O)c(NS(C)(=O)=O)c3)CC2)cc1` [Example 58, Ethyl 2-{[(4-{4-[((2R)-2-Hydroxy-2-{4-hydroxy-3-((methylsulfonyl)amino]-phenyl}ethyl)amino]piperidin-1-yl}phenyl)sulfonyl]amino}acetylcarbamate], for which the melting point fell in the range of 98 to 105 °C. Further, in data set [1], the 50% effective concentration (EC50) was 3.9 µM and the “beta-2 (IA) maximal response relative to isoproterenol” value was “(0.31)”. For the same compound, in data set [2], the EC50 is 0.011 µM and the “beta-3 (IA) maximal response relative to isoproterenol” value was “(1)”. Moreover, in data set [3], the EC50 stood at 3.6 µM and the “beta-1 (IA) maximal response relative to isoproterenol” value was “(0.65)”.

As to `COC(=O)N(CC(=O)OC(C)(C)C)S(=O)(=O)c1ccc(N2CCC(NC[C@H](O)c3ccc(O)c(NS(C)(=O)=O)c3)CC2)cc1` [Example 59, tert-Butyl [[(4-{4-[((2R)-2-Hydroxy-2-{4-hydroxy-3-[(methylsulfonyl)amino]-phenyl}ethyl)amino]piperidin-1-yl}phenyl)sulfonyl](methoxycarbonyl)-amino]acetate], the melting point lay within 110 to 115 °C. In addition, in data set [1], the EC50 is 12 µM and the “beta-2 (IA) maximal response relative to isoproterenol” value is given as “(0.2)”. Further, in data set [2], the EC50 stood at 0.015 µM and the “beta-3 (IA) maximal response relative to isoproterenol” value is reported as “(0.98)”. Besides, in data set [3], the EC50 is 7.8 µM and the “beta-1 (IA) maximal response relative to isoproterenol” value is on record as “(0.52)”.

The compound `CCOC(=O)CN(Cc1cc(F)ccc1F)S(=O)(=O)c1ccc(N2CCC(NC[C@H](O)c3ccc(O)c(NS(C)(=O)=O)c3)CC2)cc1` [Example 61, Ethyl {(2,5-Difluorobenzyl)[(4-{4-[((2R)-2-hydroxy-2-{4-hydroxy-3-[(methyl-sulfonyl)amino]phenyl}ethyl)amino]piperidin-1-yl}phenyl)sulfonyl]amino}acetate] yielded a melting point of 85 to 90 °C. The “beta-2 (IA) maximal response relative to isoproterenol” value in data set [1] was “(0.2)”. Besides, in data set [2], the EC50 stood at 0.001 µM and the “beta-3 (IA) maximal response relative to isoproterenol” value is “(1.1)”. In data set [3], the concentration for a half-maximal effect (EC50) is 1.9 µM and the “beta-1 (IA) maximal response relative to isoproterenol” value was “(0.3)”.

In turn, `CCCCNC(=O)NS(=O)(=O)c1ccc(N2CCC(NC[C@H](O)c3ccc(O)c(NS(C)(=O)=O)c3)CC2)cc1` [Example 62, 1-[4-({[(Butylamino)carbonyl]amino}sulfonyl)phenyl]-4-[((2)-2-hydroxy-2-{4-hydroxy-3-[(methylsulfonyl)amino]phenyl}ethyl)amino]piperidine] had a melting point of 100 to 102 °C. In addition, in data set [1], the EC50 came out at 5 µM and the “beta-2 (IA) maximal response relative to isoproterenol” value was “(0.31)”. Moreover, in data set [2], the EC50 was found to be 0.009 µM and the “beta-3 (IA) maximal response relative to isoproterenol” value is “(1)”. Further, in data set [3], the EC50 is 5 µM and the “beta-1 (IA) maximal response relative to isoproterenol” value is reported as “(0.32)”.

In turn, `CCOC(=O)CN1CCN(S(=O)(=O)c2ccc(N3CCC(NC[C@H](O)c4ccc(O)c(NS(C)(=O)=O)c4)CC3)cc2)CC1` [Example 64, Ethyl {4-((4-{4-[((2R)-2-Hydroxy-2-{4-hydroxy-3-[(methylsulfonyl)amino]-phenyl}ethyl)amino]piperidin-1-yl}phenyl)sulfonyl]piperazin-1-yl}acetate] gave a melting point of 91 to 92 °C. In data set [1], the EC50 amounted to 5.9 µM and the “beta-2 (IA) maximal response relative to isoproterenol” value was “(0.22)”. Moreover, in data set [2], the EC50 is 0.004 µM and the “beta-3 (IA) maximal response relative to isoproterenol” value is listed as “(1.1)”. For the same compound, the “beta-1 (IA) maximal response relative to isoproterenol” value in data set [3] was “(0.11)”.

`CN1CCN(S(=O)(=O)c2ccc(N3CCC(NC[C@H](O)c4ccc(O)c(NS(C)(=O)=O)c4)CC3)cc2)CC1` [Example 66, N-(2-Hydroxy-5-{(1R)-1-hydroxy-2-[(1-{4-[(4-methylpiperazin-1-yl)sulfonyl]phenyl}piperidin-4-yl)amino]ethyl}phenyl)methanesulfonamide] showed a melting point of 89 to 91 °C. Moreover, the “beta-2 (IA) maximal response relative to isoproterenol” value in data set [1] is “(0.17)”. Also, in data set [2], the EC50 was 0.025 µM and the “beta-3 (IA) maximal response relative to isoproterenol” value was “(0.95)”. In data set [3], the EC50 was found to be 2.7 µM and the “beta-1 (IA) maximal response relative to isoproterenol” value is given as “(0.44)”.
